Data: paper PMC6290023 (Scientific Reports, 2018)
Peptide text beside a SMILES is read from it.

Columns and labels:
tPA-induced hemorrhage = type: in vivo; conditions: mouse tMCAo, MHP1-AcN 150 µg/mice combined with tPA 10 mg/kg after reperfusion at 6 h; 24 h after ischemia
Description: (§1) The ischemic damage was evaluated at 48 h after MCAo in sections stained with cresyl violet. Coronal sections (12 μm thickness) were made at −1.4, −0.7, 0, 0.7 and 1.4 mm from the bregma, mounted on the stereomicroscope and photographed. The volume of the infarct was calculated by the sum of each area of all sections corrected by cerebral edema and multiplied by the thickness of the slices. In the experiment of tPA-induced hemorrhage, PE10-catheter was placed in the right internal jugular vein at 6 h after ischemia. The nylon suture was then removed and 10% of the MHP-AcN mixture (150 µg/mice) and tPA (10 mg/kg) were injected followed by continuous injection of residual mixture of MHP1-AcN and tPA using a syringe pump (UNIVENTOR 400 ANAESTHESIA UNIT, ZTN, MALTA). In the experiment of FeCl3 -induced thrombosis model in CCA, a piece of filter paper soaked in 7.5% FeCl3 was placed on the right CCA for 1 min and it was rinsed with saline. Blood flow was recorded by using a laser speckle blood flow imager (OMEGAZONE OZ-2, OMEGAWAVE, INC., Tokyo, Japan). tPA (10 mg/kg) or mixture of MHP1-AcN (150 μg/mice) and tPA was started to be administered at 30 min after CCA occlusion.

[1] = test system: FeCl3-induced thrombosis model in CCA; experiment: FeCl3-induced thrombosis model in CCA, thrombolysis with tPA; type: in vivo; conditions: mouse, MHP1-AcN 150 μg/mice combined with tPA 10 mg/kg, 30 min after CCA occlusion
Description: as §1

tMCAo model in mice = experiment: Transient middle cerebral artery occlusion (tMCAo) model; type: in vivo; conditions: mouse tMCAo; for reduction of infarct volume: 150 μl i.v. 6 h after MCAo then s.c. Alzet pump 24 h; for neurological deficits (neurological severity score): start 6 h after MCAo
Description: The plan of animal studies was approved by the Animal Committee of Graduate School of Medicine, Osaka University (25-029-012), and all animal experiments were carried out in accordance with the guidelines of Osaka University. All surgeries were performed using isoflurane and all efforts were made to minimize suffering. The C57Bl6/J mice were obtained from CLEA Japan, Inc. The transient middle cerebral artery occlusion procedure was described previously (1). Briefly, the mice were anesthetized with isoflurane (1.4%). The cerebral blood flow (CBF) was measured using a laser Doppler flowmeter (Unique Acquisition software; Unique Medical, Osaka, Japan). A 6.0 monofilament surgical suture was advanced into the internal carotid artery to obstruct the origin of the middle cerebral artery. The filament was left in place for 40 min before withdrawal. For all the mice, the rectal temperature was maintained at 37.0 ± 0.5 °C during surgery and recovery period (until the animals regained consciousness). […] MHP1 (4 mg/ml in water) was diluted to 0.5, 1, or 2 mg/ml in 0.45% saline, and 150 μl of the MHP1 was injected intravenously at 6 or 8 h after the MCAo. MHP1 was subsequently injected subcutaneously for 24 hrs using Alzet mini-osmotic pump (2001D, DURECT Corporation, Cupertino, USA). The vehicle control for MHP1, 0.45% saline, was injected similarly.
as §1

[2] = Safety in normal mice (blood biochemistry); type: in vivo, mouse; conditions: intravenous injection and continuous subcutaneous injection with Alzet pump, 24 h post-injection
[3] = Pharmacokinetics after intravenous injection 4 h after tMCAo (LC/MS/MS); type: in vivo; conditions: mouse, i.v. 2 mg/ml, 10 ml/kg in 0.45% saline
Description: MHP1-Ac or MHP1-AcN (2 mg/ml, 10 ml/kg in 0.45% saline) was administered intravenously 4 hrs after tMCAo and mouse plasma was collected at 5 min, 10 min, 20 min, 30 min, 45 min, 1 h, and 2 h after injection. Mouse plasma (C57BL6J, 10 µL) and water/phosphoric acid (24:1, v/v) (Solution B, 500 µL) were mixed together to prepare the plasma samples. The samples (510 µL) were then analyzed using LC/MS/MS to determine MHP1-Ac or MHP1-AcN in plasma. Mouse brain was weighed and mixed with a 4-fold volume of solution B and the mixture was homogenized to prepare the brain samples. The specific gravity of solution B was assumed to be 1. The brain samples (10 µL) were analyzed using LC/MS/MS to determine MHP1-Ac or MHP1-AcN in brain. MHP1-Ac and MHP1-AcN, and MHP1-N (internal standard), in the plasma samples and brain samples, were extracted using Oasis HLB μElution Plate (Waters). Chromatographic analysis was performed on an InertSustain C18 (2.1 mm I.D. ×50 mm, 3 µm, GL Sciences) column using the mobile phase A, water/formic acid (1000:1, v/v), and the mobile phase B, acetonitrile/formic acid (1000:1, v/v).

LPS-stimulated MG6 cells [4] = experiment: LDH assay in LPS-stimulated MG6 cells; type: cell-based, mouse
LPS-stimulated MG6 cells [5] = experiment: Anti-inflammatory effect in LPS-stimulated MG6 cells (TNF-α / IL-6 ELISA); type: cell-based, mouse
Description: MG6 cells were obtained from RIKEN BRC (Tsukuba, Japan)[25],[26]. The MG6 cells were maintained in DMEM (Nakarai, Kyoto, Japan) supplemented with 10% FBS (Thermo Fisher Scientific, Waltham, MA, USA), 10 μg/ml insulin (Sigma-Aldrich, St. Louis, MO, USA) and 100 μM 2-mercaptoethanol (Sigma-Aldrich). These cells (1 × 10^5 cells) were plated in 96-well plastic culture dishes. After overnight incubation, the medium was replaced with DMEM supplemented with 4% FBS. LPS (Escherichia coli 0111: B4; Sigma-Aldrich, St. Louis, MO, USA) and MHP1 or modified MHP1 was added to the medium, which was then harvested at 24 h after stimulation. In the experiment checking the stability at 26 or 37 °C, MHP1-Ac or MHP1-AcN was incubated at 26 or 37 °C for 24 h before adding to the medium.
The concentrations of TNF-α and IL-6 were measured using commercially available ELISA kits: TNF-α, Quantikine Mouse TNF-α ELISA Kit (R&D systems); IL-6, Quantikine Mouse IL-6 ELISA Kit (R&D systems).

[6] = LPS-stimulated MG6 cells, medium harvested 24 h after stimulation, ELISA

CC[C@H](C)[C@H](NC(=O)[C@H](CO)NC(=O)[C@@H](NC(=O)[C@H](CCCCN)NC(=O)[C@@H](NC(=O)[C@@H](NC(=O)[C@H](Cc1ccc(O)cc1)NC(=O)[C@@H](NC(=O)[C@H](CCSC)NC(=O)[C@H](CC(C)C)NC(C)=O)C(C)C)C(C)C)C(C)C)[C@@H](C)O)C(=O)N[C@@H](CCCCN)C(=O)N[C@H](C(=O)N1CCC[C@H]1C(=O)N[C@@H](CO)C(=O)N[C@@H](CO)C(=O)N[C@@H](Cc1c[nH]cn1)C(=O)N[C@@H](CC(N)=O)C(=O)N[C@@H](CC(C)C)C(=O)N[C@@H](CCSC)C(=O)N[C@@H](CCCCN)C(=O)NCC(=O)NCC(=O)N[C@@H](CO)C(=O)N[C@H](C(=O)N[C@@H](CCCCN)C(=O)N[C@@H](CC(N)=O)C(=O)N[C@@H](Cc1c[nH]c2ccccc12)C(=O)N[C@@H](CO)C(=O)NCC(=O)N[C@@H](CC(N)=O)C(N)=O)[C@@H](C)O)[C@@H](C)CC [MHP1-AcN] (Ac-LMVYVVKTSIKIPSSHNLMKGGSTKNWSGN-NH2)
effect on tPA-induced hemorrhagic formation (tPA-induced hemorrhage): reduced formation of hemorrhage | effect on time of recanalization by tPA [1]: did not affect the time of recanalization | reduction of infarct volume (tMCAo model in mice; 0.5 mg/ml, infarct at 48 h): effective | neurological deficits (neurological severity score) (tMCAo model in mice; 0.5 mg/ml): significantly improved | reduction of infarct volume (tMCAo model in mice; 1 mg/ml, infarct at 48 h): the most effective dose | neurological deficits (neurological severity score) (tMCAo model in mice; 1 mg/ml): significantly improved | neurological deficit (tMCAo model in mice; 1 mg/ml, start 8 h after ischemia, at 48 h after ischemia): significantly improved | infarct volume compared to saline-treated mice (tMCAo model in mice; 1 mg/ml, start 8 h after ischemia, infarct at 48 h): tendency of reduction | reduction of infarct volume (tMCAo model in mice; 2 mg/ml, infarct at 48 h): effective | neurological deficits (neurological severity score) (tMCAo model in mice; 2 mg/ml): tendency of recovery | blood biochemistry [2]: no abnormalities | level at 0.5 h ([3]; C57BL6J, iv, 20 mg/kg, plasma, 30 min, read-out: intact peptide in plasma 30 min post-injection): ~8000 ng/mL | time post-injection until which peptide was detected in the brain ([3]; brain homogenate, last sampling 2 h): 2 h | cytotoxicity (LDH assay) (LPS-stimulated MG6 cells [4]): did not increase cytotoxicity | anti-inflammatory effects at 1 µg/ml (LPS-stimulated MG6 cells [5]; LPS-stimulated MG6 cells, 1 µg/ml peptide): anti-inflammatory effects were seen | dose dependency of anti-inflammatory effects (LPS-stimulated MG6 cells [5]; LPS-stimulated MG6 cells, 24 h, ELISA): Dose-dependent anti-inflammatory effects were observed | inhibition of IL-6 expression compared with MHP1 (LPS-stimulated MG6 cells [5]; [6]): more effective than MHP1 | inhibition of TNF-α expression compared with MHP1 (LPS-stimulated MG6 cells [5]; [6]): more effective than MHP1 | expression of TNF-α with peptide pre-incubated at 4, 37 or 26 °C (retention of anti-inflammatory effect) (LPS-stimulated MG6 cells [5]; peptide incubated at 4, 37 or 26 °C for 24 h, then added to LPS-stimulated MG6 cells): no significant differences
